Data: paper PMC7134601 (Febs Letters, 2004)
Entries after “also recorded” stand apart in the source; their conditions may differ.

Key:
SARS‐CoV 3CL protease = SARS‐CoV 3CL protease (Severe acute respiratory syndrome coronavirus, UniProt P0C6X7); assay: biochemical; format: biochemical
SARS‐CoV [1] = format: cell-based
SARS‐CoV [2] = format: cell-based; remark: listed apart in the source

| SMILES | inhibition pattern with respect to the substrate (SARS‐CoV 3CL protease) | inhibition of 3CL protease activity (SARS‐CoV 3CL protease) | Ki (SARS‐CoV 3CL protease) [nM] | further results |
| --- | --- | --- | --- | --- |
| [O-]n1ccccc1=S.[O-]n1ccccc1=S.[Zn+2] [1‐Hydroxypyridine‐2‐thione zinc] | competitive | – | – | – |
| [Co+2] [Co^2+] | – | did not inhibit | – | – |
| [Cu+2] [Cu^2+] | – | effective | 4900 ± 1300 | – |
| Oc1c(Cl)cc(Cl)c(Cl)c1Cc1c(O)c(Cl)cc(Cl)c1Cl [Hexachlorophene] | competitive | – | 13700 ± 400 | cytotoxicity (Vero E6 cells): No cytotoxicity; cells still alive (Vero E6 cells; African green monkey): approximately 50%; inhibition of cytopathic effect (SARS‐CoV [1]): strong inhibition |
| [Hg+2] [Hg^2+] | – | effective | – | – |
| [Mg+2] [Mg^2+] | – | did not inhibit | – | – |
| [Mn+2] [Mn^2+] | – | did not inhibit | – | – |
| [Ni+2] [Ni^2+] | – | did not inhibit | – | – |
| CC(=O)[O][Hg][c]1ccccc1 [Phenylmercuric acetate] | competitive | – | 700 ± 300 | effect on detection of the viral spike protein (SARS‐CoV [2]): suppressed detection of the viral spike protein |
| C[CH2][Hg][S]c1ccccc1C(=O)[O-].[Na+] [Thimerosal] | competitive | – | 2400 ± 200 | decrease of the detectable quantity of the spike protein (SARS‐CoV [2]): over 90% |
| [Zn+2] [Zn^2+] | non‐competitively; also recorded: non‐competitive | effective | 1100 ± 400 | fold larger K i versus 1‐hydroxypyridine‐2‐thione zinc (SARS‐CoV 3CL protease): 6 fold |
| O=C(Nc1ccc([N+](=O)[O-])cc1Cl)c1cc(Cl)ccc1O [niclosamide, Niclosamide] | – | not indicative of any inhibitory effect | – | – |
